Reference: PubChem BioAssay AID248 (DTP/NCI, 2004)
Values joined by “and” are separate entries in the source; they are usually repeats but may differ in a detail not shown here. Identical values can stand only once. Inconclusive results and toxic doses are left out.

Tested on: L1210 leukemia ip in BDF1 mice, survival T/C
Assay: NCI In Vivo Anticancer Drug Screen. Data for tumor model L1210 Leukemia (intraperitoneal) in B6D2F1 (BDF1) mice
Conditions: endpoint: mean survival time, higher = longer survival
Method in brief: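 Ratio derived from survival: compound-dosed mice over vehicle-dosed mice, all bearing a transplantable tumor.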

[1] = dose: 100.0 mg/kg/injection, schedule: Q01DX009 (ip), vehicle: saline with Tween-80
[2] = dose: 100.0 mg/kg/injection, schedule: Q04DX003 (ip), vehicle: saline with Tween-80
[3] = dose: 200.0 mg/kg/injection, schedule: Q04DX003 (ip), vehicle: saline with Tween-80
[4] = dose: 400.0 mg/kg/injection, schedule: Q04DX003 (ip), vehicle: saline with Tween-80
[5] = dose: 25.0 mg/kg/injection, schedule: Q01DX009 (ip), vehicle: saline
[6] = dose: 50.0 mg/kg/injection, schedule: Q01DX009 (ip), vehicle: saline
[7] = dose: 100.0 mg/kg/injection, schedule: Q01DX009 (ip), vehicle: saline
[8] = dose: 100.0 mg/kg/injection, schedule: Q01DX001 (ip), vehicle: saline
[9] = dose: 200.0 mg/kg/injection, schedule: Q01DX001 (ip), vehicle: saline
[10] = dose: 100.0 mg/kg/injection, schedule: Q01DX001 (ip), vehicle: other
[11] = dose: 200.0 mg/kg/injection, schedule: Q01DX001 (ip), vehicle: other
[12] = dose: 400.0 mg/kg/injection, schedule: Q01DX001 (ip), vehicle: other

SMILES: CC(C)=NNC(=O)c1ccccc1
- T/C (dose: 12.5 mg/kg/injection, schedule: Q04DX003 (ip), vehicle: saline with Tween-80): 94 % of control
- T/C (dose: 50.0 mg/kg/injection, schedule: Q01DX009 (ip), vehicle: saline with Tween-80): 110 % of control
- T/C (dose: 50.0 mg/kg/injection, schedule: Q04DX003 (ip), vehicle: saline with Tween-80): 96 % of control
- T/C [1]: 113 % of control
- T/C [2]: 108 % of control and 110 % of control
- T/C [3]: 124 % of control
- T/C [4]: 96 % of control

SMILES: CN(C)CCC[N+]1([O-])c2ccccc2CCc2ccccc21
- T/C (dose: 9.37 mg/kg/injection, schedule: Q01DX009 (ip), vehicle: saline): 102 % of control
- T/C (dose: 18.75 mg/kg/injection, schedule: Q01DX009 (ip), vehicle: saline): 108 % of control
- T/C (dose: 18.75 mg/kg/injection, schedule: Q04DX003 (ip), vehicle: saline): 102 % of control
- T/C (dose: 37.5 mg/kg/injection, schedule: Q01DX009 (ip), vehicle: saline): 97 % of control
- T/C (dose: 37.5 mg/kg/injection, schedule: Q04DX003 (ip), vehicle: saline): 96 % of control
- T/C (dose: 75.0 mg/kg/injection, schedule: Q01DX009 (ip), vehicle: saline): 102 % of control
- T/C (dose: 75.0 mg/kg/injection, schedule: Q04DX003 (ip), vehicle: saline): 96 % of control
- T/C (dose: 150.0 mg/kg/injection, schedule: Q04DX003 (ip), vehicle: saline): 88 % of control

SMILES: CC(C)CC(C)NCC(C)O (stereo not given)
- T/C (dose: 75.0 mg/kg/injection, schedule: Q01DX001 (ip), vehicle: acid diluted with saline): 100 % of control
- T/C (dose: 150.0 mg/kg/injection, schedule: Q01DX001 (ip), vehicle: acid diluted with saline): 100 % of control

SMILES: Fc1ccc(P(c2ccc(F)cc2)c2ccc(F)cc2)cc1
- T/C (dose: 25.0 mg/kg/injection, schedule: Q01DX009 (ip), vehicle: Klucel (hydroxypropylcellulose) (HPC)): 97 % of control
- T/C (dose: 50.0 mg/kg/injection, schedule: Q01DX009 (ip), vehicle: Klucel (hydroxypropylcellulose) (HPC)): 89 % of control
- T/C (dose: 100.0 mg/kg/injection, schedule: Q04DX003 (ip), vehicle: Klucel (hydroxypropylcellulose) (HPC)): 103 % of control

SMILES: O=NN(CCCl)C(=O)N[C@H]1CCCC[C@H]1Cl
- T/C (dose: 12.0 mg/kg/injection, schedule: Q01DX001 (ip), vehicle: carboxymethylcellulose (CMC)): 108 % of control
- T/C (dose: 16.0 mg/kg/injection, schedule: Q01DX001 (ip), vehicle: carboxymethylcellulose (CMC)): 175 % of control
- T/C (dose: 31.0 mg/kg/injection, schedule: Q01DX001 (ip), vehicle: carboxymethylcellulose (CMC)): 180 % of control
- T/C (dose: 36.0 mg/kg/injection, schedule: Q01DX001 (ip), vehicle: carboxymethylcellulose (CMC)): 177 % of control
- T/C (dose: 40.0 mg/kg/injection, schedule: Q01DX001 (ip), vehicle: carboxymethylcellulose (CMC)): 168 % of control
- T/C (dose: 54.0 mg/kg/injection, schedule: Q01DX001 (ip), vehicle: carboxymethylcellulose (CMC)): 289 % of control
- T/C (dose: 62.0 mg/kg/injection, schedule: Q01DX001 (ip), vehicle: carboxymethylcellulose (CMC)): 218 % of control and 304 % of control
- T/C (dose: 72.0 mg/kg/injection, schedule: Q01DX001 (ip), vehicle: carboxymethylcellulose (CMC)): 289 % of control
- T/C (dose: 90.0 mg/kg/injection, schedule: Q01DX001 (ip), vehicle: carboxymethylcellulose (CMC)): 295 % of control
- T/C (dose: 93.0 mg/kg/injection, schedule: Q01DX001 (ip), vehicle: carboxymethylcellulose (CMC)): 177 % of control
- T/C (dose: 108.0 mg/kg/injection, schedule: Q01DX001 (ip), vehicle: carboxymethylcellulose (CMC)): 307 % of control
- T/C (dose: 125.0 mg/kg/injection, schedule: Q01DX001 (ip), vehicle: carboxymethylcellulose (CMC)): 175 % of control
- T/C (dose: 135.0 mg/kg/injection, schedule: Q01DX001 (ip), vehicle: carboxymethylcellulose (CMC)): 306 % of control
- T/C (dose: 187.0 mg/kg/injection, schedule: Q01DX001 (ip), vehicle: carboxymethylcellulose (CMC)): 107 % of control
- T/C (dose: 207.0 mg/kg/injection, schedule: Q01DX001 (ip), vehicle: carboxymethylcellulose (CMC)): 242 % of control

SMILES: NC(N)=Nc1ccc(C(=O)Oc2ccc([N+](=O)[O-])cc2Cl)cc1
- T/C [5]: 94 % of control
- T/C [6]: 97 % of control
- T/C [7]: 87 % of control
- T/C (dose: 100.0 mg/kg/injection, schedule: Q04DX003 (ip), vehicle: saline): 96 % of control
- T/C (dose: 200.0 mg/kg/injection, schedule: Q04DX003 (ip), vehicle: saline): 94 % of control

SMILES: CCCC1(CC)CNC(=O)NC1=O (stereo not given)
- T/C (dose: 100.0 mg/kg/injection, schedule: Q01DX Z (ip), vehicle: saline): 97 % of control
- T/C (dose: 200.0 mg/kg/injection, schedule: Q01DX Z (ip), vehicle: saline): 92 % of control

SMILES: OCCCCN1CCCCC1
- T/C [8]: 106 % of control
- T/C [9]: 101 % of control

SMILES: ClCCC[Si](Cl)(Cl)Cl
- T/C (dose: 75.0 mg/kg/injection, schedule: Q01DX001 (ip), vehicle: saline): 109 % of control
- T/C (dose: 150.0 mg/kg/injection, schedule: Q01DX001 (ip), vehicle: saline): 107 % of control
- T/C (dose: 300.0 mg/kg/injection, schedule: Q01DX001 (ip), vehicle: saline): 100 % of control

SMILES: CNC(=S)n1cnc(N)n1
- T/C (dose: 50.0 mg/kg/injection, schedule: Q01DX001 (ip), vehicle: saline): 107 % of control
- T/C [8]: 101 % of control
- T/C [9]: 107 % of control

SMILES: Cc1nc(N)c(=O)[nH]c1C
- T/C (dose: 100.0 mg/kg/injection, schedule: Q01DX001 (ip), vehicle: Klucel (hydroxypropylcellulose) (HPC)): 104 % of control
- T/C [1]: 90 % of control
- T/C [2]: 100 % of control
- T/C (dose: 200.0 mg/kg/injection, schedule: Q01DX001 (ip), vehicle: Klucel (hydroxypropylcellulose) (HPC)): 97 % of control
- T/C (dose: 200.0 mg/kg/injection, schedule: Q01DX009 (ip), vehicle: saline with Tween-80): 112 % of control
- T/C [3]: 105 % of control
- T/C (dose: 400.0 mg/kg/injection, schedule: Q01DX001 (ip), vehicle: Klucel (hydroxypropylcellulose) (HPC)): 97 % of control
- T/C (dose: 400.0 mg/kg/injection, schedule: Q01DX009 (ip), vehicle: saline with Tween-80): 104 % of control
- T/C [4]: 114 % of control

SMILES: CCCCCCCCCCCCSC(SCCCCCCCCCCCC)SCCCCCCCCCCCC
- T/C [10]: 95 % of control
- T/C [11]: 106 % of control
- T/C [12]: 95 % of control

SMILES: c1ccc([As](c2ccccc2)c2ccccc2)cc1
- T/C (dose: 50.0 mg/kg/injection, schedule: Q01DX001 (ip), vehicle: other): 103 % of control
- T/C [10]: 103 % of control
- T/C [11]: 97 % of control
- T/C [12]: 103 % of control

SMILES: NC(=O)NC1OC(CO)C(O)C(O)C1O (stereo not given)
- T/C [7]: 95 % of control
- T/C (dose: 200.0 mg/kg/injection, schedule: Q01DX009 (ip), vehicle: saline): 94 % of control
- T/C (dose: 400.0 mg/kg/injection, schedule: Q01DX009 (ip), vehicle: saline): 86 % of control

SMILES: c1cc[c]([Pb]([S]c2nc3ccccc3[nH]2)([c]2ccccc2)[c]2ccccc2)cc1
- T/C (dose: 3.12 mg/kg/injection, schedule: Q04DX002 (ip), vehicle: gum acacia): 104 % of control
- T/C (dose: 6.25 mg/kg/injection, schedule: Q04DX002 (ip), vehicle: gum acacia): 101 % of control
- T/C (dose: 12.5 mg/kg/injection, schedule: Q04DX002 (ip), vehicle: gum acacia): 97 % of control and 101 % of control

SMILES: O=C(Nc1cccc2ccccc12)SCc1ccccc1
- T/C (dose: 100.0 mg/kg/injection, schedule: Q04DX002 (ip), vehicle: Klucel (hydroxypropylcellulose) (HPC)): 94 % of control
- T/C (dose: 400.0 mg/kg/injection, schedule: Q04DX002 (ip), vehicle: Klucel (hydroxypropylcellulose) (HPC)): 90 % of control

SMILES: C/C=C/C(=O)Nc1cccc(OC(=O)NC(C)CC)c1 (stereo not given)
- T/C [2]: 98 % of control
- T/C [3]: 87 % of control
- T/C [4]: 93 % of control

SMILES: COc1cc2c3c(c1)C(O)CC[N+]3(C)CCC2 (stereo not given)
- T/C (dose: 12.5 mg/kg/injection, schedule: Q01DX009 (ip), vehicle: saline): 90 % of control
- T/C (dose: 12.5 mg/kg/injection, schedule: Q04DX003 (ip), vehicle: saline): 114 % of control
- T/C [5]: 95 % of control
- T/C (dose: 25.0 mg/kg/injection, schedule: Q04DX003 (ip), vehicle: saline): 98 % of control
- T/C [6]: 92 % of control
- T/C (dose: 50.0 mg/kg/injection, schedule: Q04DX003 (ip), vehicle: saline): 112 % of control

SMILES: O=P1(N(CCF)CCCl)NCCCO1 (stereo not given)
- T/C (dose: 10.0 mg/kg/injection, schedule: Q01DX Z (ip), vehicle: other): 94 % of control
- T/C (dose: 30.0 mg/kg/injection, schedule: Q01DX Z (ip), vehicle: other): 102 % of control
